Experiments:
AsPC-1 cells = experiment: Comparative studies, orthotopic AsPC-1 pancreatic tumor in nude mice; assay type: in vivo; details: subQ close to the pancreas, one injection per day for 10 days, total dose 20 mg/mouse; sacrificed at day 24; FIG. 4
Experimental: In these experiments nude mice weighing approximately 25 grams were used. First, the tail of the pancreas was exposed through an abdominal incision. Then 1×10^6 AsPC-1 cells were injected into the pancreas. The pancreas was replaced in the peritoneal cavity and the incision was closed. A 3-5 mm diameter tumor developed in 10 days.
MNTX was dissolved at 40 mg/mL in phosphate buffered saline (PBS) and then formulated to 100 uL (50 uL drug and 50 uL PBS) and injected subQ close to the pancreas. One injection per day was given for 10 days. The total dose was therefore 20 mg/mouse. For control and comparison, experiments on mice that were 1) not treated, 2) treated with light alone, 3) treated with gemcitibine alone, and 4) treated with Avastin alone using essentially the same procedure as described above were performed. The mice were sacrificed at day 24 and tumor weight was determined.
FIG. 4 provides local tumor burden experimental results for comparative studies involving administration of MNTX, Avastin and Gemcitabine anti-tumor agents. Tumor weight (mg) is shown for tumor conditions of: no treatment (NT); treatment with light alone (light alone); treatment with Gemcitabine alone (GEM); treatment with Avastin alone (Avastin) and treatment with MNTX (MNTX).

AsPC-1 pancreatic cancer = experiment: Pancreatic tumor growth inhibition studies, orthotopic AsPC-1 pancreatic cancer; assay type: in vivo, nude mice; details: I.P. 150 mg/kg daily for 13 days, 10 animals, sacrificed on day 24; control PBS; FIG. 6
Experimental: In these experiments, the effect of a purified stereoisomer of MNTX on AsPC-1 pancreatic cancer was evaluated.
Nude mice weighing approximately 25 grams were used. The tail of the pancreas was exposed through an abdominal incision. Then 1×10^6 AsPC-1 cells were injected into the pancreas. The pancreas was replaced in the peritoneal cavity and the incision was closed. A 3-5 mm diameter tumor developed in 10 days.
MNTX1 was formulated at 10 mg/mL in PBS. The 150 mg/kg dose was accomplished by a […] injection of a 10 mg/mL stock solution. Injections were done daily for 13 days, and the 10 animals were subsequently sacrificed on day 24. Treatments start after 10 days of AsPC1 pancreatic tumor cell orthotopic implantation. After two more weeks, the mice are sacrificed and tumor weight is measured for the evaluation of tumor growth inhibition effects. For control, four mice were injected according to the above schedule with PBS only. They were also sacrificed on day 24. FIG. 5 provides a schematic illustrating the experimental design of the pancreatic tumor growth inhibition studies. I.P. treatments (150 mg MNTX1/kg/each injection, 300 μl of 10 mg/ml for each injection totally for 13 times, animal number=10).
FIG. 6 provides experimental results for the pancreatic tumor growth inhibition studies showing the effects of MNTX1 on AsPC-1 pancreatic cancer. […]

[1] = Escalating dose study on mice; assay type: in vivo; details: intraperitoneal injection
Experimental: The MNTX1 dose was established using an escalating dose study on mice. An intraperitoneal injection dose of 150 mg/kg was chosen. For a dosage of 400 mg/kg, 2 of 2 died, for a dosage of 200 mg/kg, 1 of 4 died; and for a dosage of 150 mg/kg (300 μl of 10 mg/ml), 3 of 3 survived. Therefore, a dose of 150 mg/kg (Intraperitoneal injection, I.P.) was used for each administration in the following orthotopic pancreatic tumor growth inhibition experiments.

endothelial cells = details: cited from earlier work
VEGF expression = details: cited from earlier work
[2] = cited from earlier work

C[N@+]1(CC2CC2)CC[C@@]23c4c5ccc(O)c4CC1C2(O)CCC(=O)C3O5 (single isomer, unassigned; (-)) [MNTX, (−)-R-naltrexone methobromide]
tumor weight measured at sacrifice (AsPC-1 cells): measurably superior to the control, Gemcitabine and Avastin conditions | tumor weight measured at sacrifice (AsPC-1 pancreatic cancer): measurably superior to the control | survived ([1]; dosage of 150 mg/kg (300 μl of 10 mg/ml)): 3 of 3 | died ([1]; dosage of 200 mg/kg): 1 of 4 | died ([1]; dosage of 400 mg/kg): 2 of 2 | synergy with Avastin to inhibit VEGF expression (endothelial cells): synergistic | synergy with 5-fluorouracil (endothelial cells; in endothelial cells): synergistic

COc1ccc2cc3[n+](cc2c1OC)CCc1cc2c(cc1-3)OCO2 [berberine]
inhibition of VEGF expression (VEGF expression): some inhibition

C[N@+]1(CC2CC2)CC[C@]23c4c5ccc(O)c4O[C@H]2C(=O)CC[C@@]3(O)[C@H]1C5 [methylnaltrexone, reference compound]
potentiation of the cytotoxic effect of 5-fluorouracil (endothelial cells): ~700 ×

α-interferon
adverse effects ([2]; clinically tested for MD): high rate of adverse effects | clinical efficacy for MD ([2]; clinically tested for MD): ineffective

B1: Lucentis: humanized anti-VEGF antibody fragment that inhibits VEGF activity by competitive binding (antibody, chains of the INN, looked up, V domains shown)
VH: EVQLVESGGGLVQPGGSLRLSCAASGYDFTHYGMNWVRQAPGKGLEWVGWINTYTGEPTYAADFKRRFTFSLDTSKSTAYLQMNSLRAEDTAVYYCAKYPYYYGTSHWYFDVWGQGTLVTVSS
VL: DIQLTQSPSSLSASVGDRVTITCSASQDISNYLNWYQQKPGKAPKVLIYFTSSLHSGVPSRFSGSGSGTDFTLTISSLQPEDFATYYCQQYSTVPWTFGQGTKVEIK
modifications: Fab
patients maintaining their baseline vision ([2]; wet macular degeneration, after 12 months of treatment): About 95%
